Literature values, collected in patent US20080175905A1, “ESTROGEN/SERM AND ESTROGEN/PROGESTIN BI-LAYER TABLETS” (Wyeth, priority 2006, published 2008).

How the values were obtained:
uterine response = conditions: preclinical models of uterine stimulation
[1] = tested on: ovariectomized rat model of osteopenia
[2] = tested on: MCF-7 cell line (human breast cancer cell line); conditions: MCF-7 human breast cancer cell line

Q: For `Cc1c(-c2ccc(O)cc2)n(Cc2ccc(OCCN3CCCCCC3)cc2)c2ccc(O)cc12` [bazedoxifene acetate, 1-[4-(2-azepan-1-yl-ethoxy)-benzyl]-2-(4-hydroxy-phenyl)-3-methyl-1H-indol-5-ol acetic acid], which “stimulation of uterine response” value (uterine response) is on record?
A: little or no stimulation of uterine response

Q: And the preventing bone loss [1]?
A: estrogen agonist-like effect

Q: And the reducing cholesterol [1]?
A: estrogen agonist-like effect

Q: And the “estrogen antagonist behaviour in MCF-7 cell line” value [2]?
A: behaves as an estrogen antagonist
